{"source": "patent US11919854B2", "about": "“P2RX7 modulators in therapy” (Centre national de la recherche scientifique, priority 2018, dated 2024)", "key": {"[1]": {"tested_on": "LLC (Lewis Lung Cancer) cells", "experiment": "Syngeneic tumor mice model, LLC subcutaneous", "format": "in vivo, C57BL6 mice", "procedure": "(§1) 5×10^5 LLC or 5×10^5 B16F10 cells were injected sub cutaneously in the right flank of C57BL6 mice. Mice received HEI3090 (ip, 2.5 mg/kg in 10% DMSO/PBS) daily or placebo (10% DMSO/PBS). A,C. incidence of tumor appearance B,D. Tumor size (mm2) and tumor weight at sacrifice day (J12). E. HEI-treated tumors are more immunogenic. Expression of CMH1 (H2K^b/D^b) and PD-L1 by LLC (black) and B16F10 (grey) tumors is shown in dot plots. Numbers highlighted the percentage of tumor cells positive for H2K^b/D^b and PD-L1. […] F. CD-45 positive infiltrates is increased in LLC and B16F10 tumors. *, p<0.05; **, p<0.01; ***, p<0.001 Mann-Whitney test.\n(§2) 5×10^5 LLC or 5×10^5 B16F10 cells were injected sub cutaneously in the right flank of C57BL6 mice. Mice received HEI3090 (ip, 2.5 mg/kg in 10% DMSO/PBS) daily or placebo (10% DMSO/PBS). A. The quantity of immunosuppressive cells is reduced. Dot plot of representative experiment. Numbers highlighted the percentage of M-MDSC and PMN-MDSC. […] B. The quantity of effector T cells ([…], NK, CD4+) is increased.\n5×10^5 LLC cells were injected sub cutaneously in the right flank of C57BL6 mice. Mice received HEI3090 (ip, 2.5 mg/kg in 10% DMSO/PBS) alone or in presence of anti CD4 antibody daily or placebo (10% DMSO/PBS). A. Tumor growth from the 3 groups was followed daily. B. tumor weight at sacrifice day (J12). *, p<0.05; ****, p<0.0001 (Mann-Whitney test).\na, b. Phenotypic flow cytometry analyses of tumor infiltrating cells. LLC tumors were collected at day 12. Proportion of PMN-MDSC among CD45+ within LLC tumors from mice treated with vehicle or HEI3090 (a). Ratio of NK, CD4+ or CD8+ T cells on PMN-MDSC (b).\nc, d. 5.105 LLC were injected s.c. into the flank of C57BL6/J mice. Then mice were treated i.p. with vehicle (PBS, 10% DMSO) or with HEI3090 (1.5 mg/kg in PBS, 10% DMSO) or with HEI3090 and depleting antibody against NK1.1, CD4+ or CD8+ T cells. Antibodies were administered i.p every 3 days (200 μg/injection). Spaghetti plots and tumor weight at day 12 (d). Each curve represents one mouse.\ne-g Functional flow cytometry analyses of tumor infiltrating immune cells or splenocytes. Tumors were stimulated with PMA/ionomycine and production of IFN-γ and IL-10 were simultaneously analyzed in CD45+, NK, CD4+ or CD8+ T cells. Graphs shown proportion of IFN-γ producing cells into CD45+ cells or geometric mean of fluorescence (e). Representative dot plots of IFN-γ and IL-10 staining into TILs (f). Ratios of IFN-γ on IL-10 positive cells on each TIL. Degranulation assay of splenocytes from LLC tumor bearing mice treated with vehicle or HEI3090 (g) Splenocytes were re-stimulated with LLC in vitro and CD107a positive cells in NK, CD4+ and CD8+ T cells were represented.\na. Flow cytometry analyses of P2RX7 expression among conventional dendritic cells CD4+ or CD8+ within LLC tumors.\nb. Protein levels of IL-1p and IL-18 in serum of LLC tumor bearing mice treated with vehicle or HEI3090, determined by ELISA.\nc. 5.105 LLC were injected s.c. into the flank of C57BL6/J mice. Then mice were treated i.p. with vehicle (PBS, 10% DMSO) or with HEI3090 (1.5 mg/kg in PBS, 10% DMSO) or with HEI3090 and neutralizing antibody against IL-1p or IL-18 from day 1 to day 12. Antibodies were administered i.p every 3 days (200 μg/injection).\ne. Effect of HEI3090 on tumor growth in IL-18 deficient mice (IL-18^−/−). 5.105 LLC were injected s.c. into the flank of IL-18^−/− mice. Mice were treated i.p. with vehicle (PBS, 10% DMSO) or with HEI3090 (1.5 mg/kg in PBS, 10% DMSO) from day 1 to day 12.\n4.2. By killing tumoral cells, HEI3090 may represent a new anti-tumor treatment. To test this hypothesis, immunocompetent C57B16J mice were subcutaneously injected with 5×10^5 B16F10 or 5×10^5 LLC (Lewis Lung Cancer) cells and treated daily with HEI3090 (ip, 2.5 mg/kg in 10% DMSO/PBS) or placebo (10% DMSO/PBS). […]"}, "[2]": {"tested_on": "B16F10 or LLC (Lewis Lung Cancer) cells", "experiment": "Syngeneic tumor mice models, statements covering both B16F10 and LLC", "format": "in vivo, C57BL6 mice", "procedure": "as §1, §2\n4.2. By killing tumoral cells, HEI3090 may represent a new anti-tumor treatment. To test this hypothesis, immunocompetent C57B16J mice were subcutaneously injected with 5×10^5 B16F10 or 5×10^5 LLC (Lewis Lung Cancer) cells and treated daily with HEI3090 (ip, 2.5 mg/kg in 10% DMSO/PBS) or placebo (10% DMSO/PBS). […] In both tumor mice models, tumors weight in the treated group was reduced by 10-fold in the B16F10 model (8 mg vs 81 mg) and by 4-folds in the LLC model (80 mg vs 295 mg). Of interest, tumors from the HEI3090 treated group are more immunogenic than tumors from the placebo group."}, "[3]": {"experiment": "Plasmatic concentration after intraperitoneal administration (LC-MS/MS)", "format": "in vivo, mice", "settings": "ip", "procedure": "B. HEI 3090 is found within plasma until 18 h after intraperitoneal administration. Intraperitoneal administration of HEI-3090 (0.166 mg/mL in 10% DMSO) was performed and serum was taken at 0, 10, 20, 30, […], 120, 240, 360, 1080 and 1440 min. Plasmatic concentration was determined by LC-MS/MS and reached a maximum of 2.5 μM.\nStability was studied in the mouse liver microsome system—and human, not shown—(FIG. 13A) and directly in vivo, for HEI3090 molecule (FIG. 13B). These experiments highlighted that HEI3090 is found at a concentration of maximum 2.5 μM in the plasma of mice injected with HEI3090 (ip, 1.5 mg/kg in 10% DMSO)."}}, "data": [{"smiles": "O=C(NCc1ccc(Cl)cc1Cl)[C@@H]1CCC(=O)N1C(=O)Nc1ccc(Cl)nc1", "note": "[HEI3090, (S)—N^1-(6-Chloropyridin-3-yl)-N^2-(2,4-dichlorobenzyl)-5-oxopyrrolidine-1,2-dicarboxamide]", "values": [{"measurement": "IL18 in plasma and within the tumor", "setting": "[1]; ELISA in serum, IHC in tumors", "value": "overexpressed"}, {"measurement": "immune cells required for anti-tumor effect", "setting": "[1]; HEI3090 1.5 mg/kg ip with depleting antibody against NK1.1, CD4+ or CD8+ T cells", "value": "both NK and CD4+ cells are required"}, {"measurement": "IFN-γ expression of NK and CD4+ cells in tumor", "setting": "[1]; HEI3090 1.5 mg/kg ip, flow cytometry", "value": "expressed more IFN-γ"}, {"measurement": "immunosuppressive cells (PMN-MDSC) in tumor infiltrates", "setting": "[1]; HEI3090 ip 2.5 mg/kg daily", "value": "less PMN-MDSC"}, {"measurement": "tumors weight", "setting": "[1]; HEI3090 ip 2.5 mg/kg daily (placebo 295 mg)", "value": 80, "unit": "mg"}, {"measurement": "reduction of tumors weight", "setting": "[1]; HEI3090 ip 2.5 mg/kg daily, vs placebo", "value": 4, "unit": "folds"}, {"measurement": "tumor size with depletion of T CD4+ lymphocytes", "setting": "[1]; HEI3090 plus anti-T CD4+ antibody", "value": "bigger than tumors from the HEI3090 group, and smaller than tumors from the placebo group"}, {"measurement": "tumor growth without IL18", "setting": "[1]; blocking IL18 antibody and Il18−/− mice, HEI3090 1.5 mg/kg ip", "value": "did not block tumor growth anymore"}, {"measurement": "P2RX7 expression on dendritic cells within tumors", "setting": "[1]; flow cytometry", "value": "increased P2RX7 expression on dendritic cells"}, {"measurement": "CD45 positive cells in tumors", "setting": "[2]; HEI3090 ip 2.5 mg/kg daily", "value": "enriched with CD45 positive cells"}, {"measurement": "delay of tumor appearance", "setting": "[2]; HEI3090 ip 2.5 mg/kg daily", "value": "1 to 4", "unit": "days"}, {"measurement": "ratio between effector cells (Tγδ, NK, CD4+) and total MDSC", "setting": "[2]; HEI3090 ip 2.5 mg/kg daily", "value": "in favor to effector cells"}, {"measurement": "tumor expression of PD-L1 vs placebo", "setting": "[2]; HEI3090 ip 2.5 mg/kg daily", "value": 2, "unit": "fold"}, {"measurement": "tumor expression of major complex histocompatibility 1 (MCH1) vs placebo", "setting": "[2]; HEI3090 ip 2.5 mg/kg daily", "value": 2, "unit": "fold"}, {"measurement": "tumor growth", "setting": "[2]; HEI3090 ip 2.5 mg/kg daily", "value": "potently inhibits tumor growth"}, {"measurement": "tumor volume and tumor weight", "setting": "[2]; HEI3090 ip 2.5 mg/kg daily, sacrifice day J12", "value": "drastically reduced"}, {"measurement": "overall mice survival", "setting": "[2]; therapeutically treated mice (increase from 22)", "value": 50, "unit": "days"}, {"measurement": "immune cells within the spleen of treated mice", "setting": "[2]; tumor bearing mice treated with HEI3090", "value": "unable to detect any modification of immune cells within the spleen"}, {"measurement": "time found within plasma after intraperitoneal administration", "setting": "[3]; 0.166 mg/mL in 10% DMSO", "value": "≤ 18", "unit": "h"}, {"measurement": "maximum plasmatic concentration", "setting": "[3]; mice, 1.5 mg/kg in 10% DMSO (0.166 mg/mL in 10% DMSO)", "value": 2.5, "unit": "µM"}]}]}
